Assay [1] has as its target T1, Tumour suppressor protein p53/Mdm4 (Homo sapiens, UniProt O15151+P04637). In words: Inhibition of human MDM4/p53 interaction by TR-FRET assay. The class given is protein assay. (In general: Time-resolved FRET reads energy transfer from a long-lived donor to a nearby acceptor.)
Assay [2] concerns the target T2, E3 ubiquitin-protein ligase Mdm2 (Homo sapiens, UniProt Q00987). Kind of assay: Binding affinity to human MDM2 assessed as dissociation constant.
Assay [3] has as its target T3, Protein Mdm4 (Homo sapiens, UniProt O15151).
T3 sequence (O15151 whole entry): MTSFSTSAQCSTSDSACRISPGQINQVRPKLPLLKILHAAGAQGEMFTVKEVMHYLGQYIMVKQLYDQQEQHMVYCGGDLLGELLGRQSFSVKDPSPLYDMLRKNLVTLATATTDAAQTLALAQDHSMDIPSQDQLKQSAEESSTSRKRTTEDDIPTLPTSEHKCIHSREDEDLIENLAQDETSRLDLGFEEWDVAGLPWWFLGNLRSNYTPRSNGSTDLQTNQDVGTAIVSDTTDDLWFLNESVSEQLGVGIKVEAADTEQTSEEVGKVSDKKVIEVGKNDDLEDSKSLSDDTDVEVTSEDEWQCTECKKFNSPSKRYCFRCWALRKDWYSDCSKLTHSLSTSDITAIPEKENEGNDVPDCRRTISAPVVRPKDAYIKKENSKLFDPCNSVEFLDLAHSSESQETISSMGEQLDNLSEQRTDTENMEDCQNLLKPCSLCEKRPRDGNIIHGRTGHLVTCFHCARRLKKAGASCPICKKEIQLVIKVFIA
Kind of assay: Inhibition of human MDM4.

Assay [4] has as its target T2, E3 ubiquitin-protein ligase Mdm2. In words: Inhibition of human MDM2.
The test system of assay [5] is MCF7. Kind of assay: Anticancer activity against […] relative to contol. The assay is classed as functional. The settings on record: read-out: TGI.
Assay [6] concerns the target T3, Protein Mdm4. Kind of assay: Inhibition of human MDM4 by TR-FRET assay.
The target in assay [7] is T3, Protein Mdm4. In words: Inhibition of MDM4 assessed as dissociation constant.
The target of assay [8] is T2, E3 ubiquitin-protein ligase Mdm2. In words: Inhibition of human MDM2 by TR-FRET assay.
Assay [9] concerns the target T3, Protein Mdm4. Kind of assay: Inhibition of human MDM4 by ELISA assay. In general terms: An ELISA detects its analyte on a solid surface through an enzyme-linked reagent.
Assay [10] deals with T1, Tumour suppressor protein p53/Mdm4. Kind of assay: Inhibition of human MDM4/p53 interaction by SPR analysis. The assay is classed as protein assay. (In general: SPR reads the build-up and loss of mass on a sensor chip optically.)
For assay [11] the target is unchanged. In words: Inhibition of human MDM4/p53 interaction by FP assay. The assay is classed as protein assay.
For assay [12], the system named is MCF7. In words: Anticancer activity against human MCF7 cells assessed as cell viability at 30 mg/kg by MTT assay relative to contol. The settings on record: MCF7, read-out: TGI.
Assay [13] addresses T3, Protein Mdm4. In words: Inhibition of human his-tagged MDM4 assessed as dissociation constant by ITC assay.
Assay [14] addresses T3, Protein Mdm4. Kind of assay: Binding affinity to human MDM4 assessed as inhibition constant.

Peptide text beside a SMILES is read from it.

T1 sequence (P04637 whole entry, one chain of several): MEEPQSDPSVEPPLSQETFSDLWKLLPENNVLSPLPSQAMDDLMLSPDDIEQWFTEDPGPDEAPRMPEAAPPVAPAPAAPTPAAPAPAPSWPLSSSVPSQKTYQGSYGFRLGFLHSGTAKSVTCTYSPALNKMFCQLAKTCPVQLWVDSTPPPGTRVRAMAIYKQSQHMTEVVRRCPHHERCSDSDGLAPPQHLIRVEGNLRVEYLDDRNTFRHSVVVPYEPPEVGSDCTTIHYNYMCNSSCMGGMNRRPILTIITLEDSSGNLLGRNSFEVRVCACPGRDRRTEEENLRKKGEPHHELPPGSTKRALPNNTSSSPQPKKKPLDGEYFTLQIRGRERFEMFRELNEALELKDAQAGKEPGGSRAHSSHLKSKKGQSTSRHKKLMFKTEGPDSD
T2 sequence (Q00987 whole entry): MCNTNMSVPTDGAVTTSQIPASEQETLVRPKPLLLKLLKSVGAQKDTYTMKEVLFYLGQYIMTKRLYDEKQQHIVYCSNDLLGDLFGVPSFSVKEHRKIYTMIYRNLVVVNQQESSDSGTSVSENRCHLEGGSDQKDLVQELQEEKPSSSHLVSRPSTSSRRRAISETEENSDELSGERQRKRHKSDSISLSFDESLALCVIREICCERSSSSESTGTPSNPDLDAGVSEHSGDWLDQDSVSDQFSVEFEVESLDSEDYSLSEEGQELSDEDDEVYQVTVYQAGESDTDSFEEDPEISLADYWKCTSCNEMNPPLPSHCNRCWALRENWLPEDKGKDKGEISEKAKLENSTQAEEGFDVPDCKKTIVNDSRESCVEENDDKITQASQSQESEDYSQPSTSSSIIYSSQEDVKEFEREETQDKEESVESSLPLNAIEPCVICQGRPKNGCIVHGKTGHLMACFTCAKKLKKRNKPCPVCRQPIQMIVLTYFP

`COc1nc(N(C)C)ncc1-c1nc2c(n1C(C)C)[C@H](c1ccc(C#N)cc1)N(c1cc(Cl)cn(C)c1=O)C2=O`: half-maximal inhibition in assay [1] (IC50) required 1300 nM.

Regarding `O=C(CN(Cc1ccc(Cl)cc1)C(=O)c1cc2ccccc2[nH]1)NC1CCCCC1`, the Ki in assay [2] is 5500 nM.

Take `COOc1cc(/C=C2\C(=O)N(c3ccccc3)N=C2C)cc(Cl)c1OCC(=O)OC`: the EC50 amounted to 2300 nM in assay [3] and 26000 nM in assay [4].

On to `CCOc1cc(C(C)(C)C)ccc1C1=N[C@@](C)(c2ccc(Cl)cc2)[C@@](C)(c2ccc(Cl)cc2)N1C(=O)N1CCN(CCCS(C)(=O)=O)CC1` [RO-5045337], for which, in assay [5], the inhibition in vivo was 61%.

`C[C@@H](c1cccc(Cl)c1)n1cnc(-c2ccccc2)c1-c1c(C(=O)NCCN2CCN(C3CCCCC3)CC2)[nH]c2cc(Cl)ccc12` had an IC50 in assay [6] of 145 nM. For `COc1cc(C(=O)O)ccc1NC(=O)[C@@H]1N[C@@H](CC(C)(C)C)[C@](C#N)(c2ccc(Cl)cc2F)[C@H]1c1cccc(Cl)c1F` [IDASANUTLIN], the Kd in assay [7] was < 100 nM. For the molecule `COc1cccc2c(C(=O)N[C@H]3CCN(c4ccc(C)cc4)C3)c[nH]c12`, the IC50 in [8] was > 50000 nM. In [9], H-ETFEHWWSQLLS-OH yielded a 50% inhibitory concentration (IC50) of 110 nM.

For `CC(C)C[C@H](NC(=O)[C@H](CS)NC(=O)[C@H](CCCNC(=N)N)NC(=O)[C@H](Cc1c[nH]c2ccccc12)NC(=O)[C@H](Cc1ccc(O)cc1)NC(=O)[C@H](CS)NC(=O)[C@H](CC(C)C)NC(=O)[C@H](Cc1ccccc1)NC(=O)[C@@H](NC(=O)[C@H](CCC(=O)O)NC(=O)[C@@H]1CCCN1C(=O)[C@H](C)NC(=O)[C@H](CCCCN)NC(=O)[C@H](CS)NC(=O)[C@H](CC(N)=O)NC(=O)[C@@H](N)CS)[C@@H](C)O)C(=O)N[C@@H](CCC(N)=O)C(=O)N[C@@H](Cc1c[nH]cn1)C(N)=O` (H-CNCKAPETFLCYWRCLQH-NH2), in assay [10], the IC50 came out at 11.4 nM.

Molecule `Cc1cc(Cl)ccc1NCc1ccc(CN(C=O)C(C(=O)NC(C)(C)C)c2c(C(=O)O)[nH]c3cc(Cl)ccc23)cc1` (stereo unspecified) gave a Ki in assay [11] of 3730 nM.

As for `CC(=O)N[C@@H](CC(C)C)C(=O)N[C@H](C(=O)N[C@@H](Cc1ccccc1)C(=O)N[C@]1(C)CCCCCC/C=C/CCC[C@@](C)(C(=O)N[C@@H](C)C(=O)N[C@@H](C)C(=O)N[C@@H](C)C(=O)N[C@@H](C)C(=O)N[C@H](C)C(N)=O)NC(=O)[C@H](CC(C)C)NC(=O)[C@H](CCC(N)=O)NC(=O)[C@H](C)NC(=O)[C@H](Cc2c[nH]c3ccccc23)NC(=O)[C@H](Cc2ccc(O)cc2)NC(=O)[C@H](C)NC1=O)[C@@H](C)O`, the inhibition in vivo at 30 mg/kg in [12] amounted to 61%.

In turn, `COc1ncc(-c2nc3c(n2C(C)C)[C@H](c2ccc(C#N)cc2)N([C@@H](C)c2cccc(Cl)c2)C3=O)c(OC)n1` showed an IC50 in assay [1] of 580 nM. In the case of `CC(C)(C)Oc1cc(C(=O)CC(N)=O)ccc1C1=N[C@@H](c2ccc(C(=O)O)cc2)[C@@H](c2c[nH]c3ccccc23)N1C(=O)N1CCNC(=O)C1`, in [13], the Kd was determined as 27 nM. Turning to `C[C@@H](c1cccc(Cl)c1)n1cnc(-c2ccccc2)c1-c1c(C(=O)Nc2cc(C(=O)O)ccc2N2CCC(N3CCCOC3=O)CC2)[nH]c2cc(Cl)ccc12`, in assay [6], the midpoint of inhibition, the IC50, lay at 17 nM.

Turning to `COc1ncc(-c2nc3c(n2C(C)C)C(c2ccc(Cl)cc2)N(c2cc(Cl)cn(C)c2=O)C3=O)c(OC)n1` (stereo unspecified), the IC50 in assay [14] stood at 3000 nM.

The term IC50 denotes the concentration that inhibits the measured activity by half. One may read the Ki as a measure of affinity in units of concentration, obtained from inhibition or displacement. Broadly, the EC50 is the concentration at which the effect is half-maximal. In general, Kd refers to the equilibrium constant for the complex coming apart.

The values are drawn from ChEMBL document CHEMBL5223086, “Recent Progress and Clinical Development of Inhibitors that Block MDM4/p53 Protein-Protein Interactions” (J Med Chem, 2021).
